In US6492137B1, “Response element compositions and assays employing same” (The Salk Institute for Biological Studies, priority 1989, dated 2002):
Numbering of substitutions follows the chain as printed.

T1: RAR (Homo sapiens, UniProt P10276)
T1 construct: expressed in transfected cells; host or cells: CV-1 (monkey kidney)
T1 sequence (P10276 1-462): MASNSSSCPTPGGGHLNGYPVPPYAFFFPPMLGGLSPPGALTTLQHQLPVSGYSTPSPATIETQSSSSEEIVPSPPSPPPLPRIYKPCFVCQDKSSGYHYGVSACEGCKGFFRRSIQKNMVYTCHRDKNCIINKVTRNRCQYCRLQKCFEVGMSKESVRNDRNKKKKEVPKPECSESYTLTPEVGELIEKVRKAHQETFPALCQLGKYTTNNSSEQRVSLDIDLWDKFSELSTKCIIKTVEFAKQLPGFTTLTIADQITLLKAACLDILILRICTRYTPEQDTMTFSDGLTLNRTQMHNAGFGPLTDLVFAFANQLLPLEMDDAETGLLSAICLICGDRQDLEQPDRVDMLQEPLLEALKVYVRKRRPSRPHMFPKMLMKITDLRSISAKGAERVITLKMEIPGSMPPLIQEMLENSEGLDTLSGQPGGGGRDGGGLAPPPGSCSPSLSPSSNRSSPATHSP

T2: RARα (Homo sapiens, UniProt P10276)
T2 sequence (P10276 1-462): T1 sequence (P10276 1-462)

T3: TRβ (Homo sapiens, UniProt P10828)
T3 sequence (P10828 1-461): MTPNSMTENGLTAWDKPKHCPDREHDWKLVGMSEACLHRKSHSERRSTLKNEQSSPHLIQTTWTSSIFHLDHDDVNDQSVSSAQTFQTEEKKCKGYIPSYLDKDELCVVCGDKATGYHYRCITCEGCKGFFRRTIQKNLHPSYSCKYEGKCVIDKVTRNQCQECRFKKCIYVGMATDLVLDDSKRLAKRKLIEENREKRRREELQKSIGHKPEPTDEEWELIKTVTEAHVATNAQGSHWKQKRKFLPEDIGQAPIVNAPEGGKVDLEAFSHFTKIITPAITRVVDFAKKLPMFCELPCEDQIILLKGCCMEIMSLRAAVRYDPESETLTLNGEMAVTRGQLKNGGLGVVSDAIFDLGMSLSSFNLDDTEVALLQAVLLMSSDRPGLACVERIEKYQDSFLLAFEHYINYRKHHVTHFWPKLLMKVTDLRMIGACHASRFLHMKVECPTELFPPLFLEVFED

T4: Retinoic acid receptor alpha (RARα), in CV-1 cells (Homo sapiens, UniProt P10276 P10276:1-462)
T4 sequence: T1 sequence (P10276 1-462)

T5: Thyroid hormone receptor beta (TRβ), in CV-1 cells (Homo sapiens, UniProt P10828 P10828:1-461)
T5 sequence: T3 sequence (P10828 1-461)

B1: MHC-T (dsDNA)
DNA 1: AGCTGGAGGTGACAGGAGGTCAGCAAGCT
DNA 2: AGCTTGCTGACCTCCTGTCACCTCCAGCT
B2: TREp (dsDNA)
DNA 1: AGCTTCAGGTCATGACCTGAGAGCT
DNA 2: AGCTCTCAGGTCATGACCTGAAGCT
B3: MHC+1 (dsDNA)
DNA 1: AGCTGGAGGTGAACAGGAGGACAGCAAGCT
DNA 2: AGCTTGCTGTCCTCCTGTTCACCTCCAGCT
B4: MHC-R (dsDNA)
DNA 1: B3 DNA 1 with A21T
DNA 2: B3 DNA 2 with T10A
B5: MHC-N (dsDNA)
DNA 1: AGCTGGAGGTGACAGGAGGACAGCAAGCT
DNA 2: AGCTTGCTGTCCTCCTGTCACCTCCAGCT

Key:
RAR = biological target: T1, RAR; experiment: Delta-MTV constructs, RA induction in CV-1 cells with cotransfected RAR expression vector; format: cell-based; details: Delta-MTV-CAT constructs; CV-1 cells
Description: Inspection of the sequences of βRE1, βRE2, and βRE3 (see FIG. 2b) identifies a tandem repeat of the 6 bp motif. The center to center separation of 11 bp between these repeats is one turn of the DNA helix. […] Apparently, a single half site element of the RARβ gene would reciprocally be responsive to the TR, ER, and/or other members of the receptor superfamily.
(§1) Cells were transfected in 10 cm dishes with 10 μg of DNA containing 5 μg of reporter plasmid, 1-2 μg of either RSV-LUC (a), or RSV-βGAL or pCH110 (c and d), pGEM4 as carrier DNA, and for the experiments shown in a and d, 1 μg of RSV-RAR expression vector or the same amount of an RSV vector generating a nonsense transcript. Cells were harvested 1 day after addition of retinoic acid. All CAT assays represent equivalent amounts of β-galactosidase activity; β-GAL assays were normalized to luciferase activity.

endogenous RA receptor = experiment: Delta-MTV-CAT constructs, RA induction in CV-1 cells without cotransfected RAR expression vector; format: cell-based, monkey
Description: as §1

RARα = biological target: T2, RARα; experiment: Gel retardation DNA-binding assay with RARα-expressing COS cell extracts; set-up: expressed in transfected cells; host or cells: COS cells (whole-cell extract); details: for competition for RARα binding to 32P-labeled βRARE: unlabeled competitor oligonucleotide, COS cell extracts
Description: (§2) For DNA binding assays, COS cells were cultured in DMEM with 10% calf bovine serum and transfected by the calcium phosphate method with 20 μg of the pCMX receptor expression plasmid for 6 hours followed by a glycerol shock. After incubating the transfected COS cells for another 48 hours, the cells were harvested to prepare extracts for the DNA binding assay, carried out as described by Damm et al., Nature 339: 593-597 (1989). The extracts were made in 20 mM HEPES (pH 7.4), 0.4 M KCl, 2 mM DTT and 20% glycerol. A similar method was employed to prepare a whole cell extract from F9 stem cells. For the binding, 5 μg (COS) or 10 μg (F9) of proteins was incubated on ice for 20 minutes, first in 20 mM HEPES, 80 mM KCl, 1 mM DTT, 0.1% NP40, 2.5 μg of poly dI/dC, and 10% glycerol (cold competitor oligonucleotides, when included, were added during this pre-incubation period). Then 40 fmole of ^32P-labeled oligonucleotide probe (1-2×10^5 cpm, prepared by filling-in reaction using Klenow polymerase in the presence of α-^32P-dCTP) was added to the reaction mixture, followed by incubation at room temperature for 30 minutes. The receptor-DNA complexes were resolved by electrophoresis through 5% polyacrylamide gel containing 5% glycerol at 6 V/cm at room temperature.
Oligonucleotides listed in FIG. 3 were used as a probe to test specific DNA-binding of the RARα and TRβ in a gel retardation assay. On the βRARE, a faint background binding activity was detected in the mock transfected COS cell extract. […] In each case the result obtained from in vivo transactivation and in vitro DNA binding are consistent.
Using the mobility shift assay, the DNA-binding capacity of extracts from COS cells expressing TRβ and RARα to these sequences was also tested. […] This pattern is consistent with that of the in vivo activation (FIG. 4). A reciprocal pattern was obtained when the same oligonucleotides were used to compete RARα binding to the ^32P-labeled βRARE. […] This provides a striking example of the role of half-site spacing in generating a functional response element.

[1] = system: F9 teratocarcinoma stem cells; experiment: CAT reporter transfection into RA responsive F9 teratocarcinoma stem cells; format: cell-based, mouse; details: RA 1 μM, 24 hours; no transfected receptor
Description: (§3) For cotransfection assays, a monkey kidney cell line CV-1 was kept in Dulbecco's modified Eagle's medium (DMEM) supplemented with 10% charcoal-resin double split calf bovine serum. Transfections were performed via calcium-phosphate precipitation method as described by Umesono, et al. in Cell 57: 1139-1146 (1989), with 0.5 μg of a pRS receptor expression plasmid, 1.0 μg of a reporter CAT plasmid, 5 μg of pRAS-βGAL [Umesono, et al., Cell 57: 1139-1146 (1989)] as an internal control, and 8.5 μg of carrier plasmid pUC19. The cells were transfected for 8 hours; after washing the DNA precipitates, the cells were then incubated for an additional 36 hours with or without the ligand (T3, 100 nM; RA, 1 μM; 1,25-(OH)2 vitamin D3, 100 nM). Cell extracts were prepared for βGAL and CAT assays, as described by Umesono, et al., supra. Transfection of F9 teratocarcinoma cells was carried out employing a similar method except the cells were incubated for 12 hours in the presence of the DNA precipitates, and the RA was added at 1 μM for another 24 hours before harvesting the cells. 2, 5, and 4 μg of the reporter, pRAS-βGAL, and pUC19 were used, respectively.
Similarly, when the same set of reporters as in FIG. 4 were transfected into F9 cells, only MHC-R (5-nucleotide spacer) and TREp are potent RAREs. In contrast, its RARE antecedents (MHC-N, MHC+1, MHC-T) are inert.

TRβ = biological target: T3, TRβ; experiment: Gel retardation DNA-binding assay with TRβ-expressing COS cell extracts; set-up: expressed in transfected cells; host or cells: COS cells (whole-cell extract); details: unlabeled competitor oligonucleotide; COS cells expressing TRβ
Description: as §2
Oligonucleotides listed in FIG. 3 were used as a probe to test specific DNA-binding of the RARα and TRβ in a gel retardation assay.
Using the mobility shift assay, the DNA-binding capacity of extracts from COS cells expressing TRβ and RARα to these sequences was also tested.

[2] = biological target: T4, Retinoic acid receptor alpha (RARα), in …; experiment: cell_activity; RA 1 µM, CV-1; details: tags: RSV or pRS expression vector; 5'-agct overhangs
Description: as §3, with “1139–1146” for “1139-1146”, “(T_3,” for “(T3,”, “1,25-(OH)_2” for “1,25-(OH)2”, “D_3,” for “D3,”
(§4) Starting from the MHC-TRE (MHC-N), a set of oligonucleotides (see FIG. 4a) were designed to introduce variations in the half-site spacing (MCH+1), the half-site sequence (MHC-T), or both (MHC-R). A single copy of these oligonucleotides was placed in the basal reporter construct ΔSV-CAT (designated by "(−)" in FIG. 4b), giving rise to a set of CAT reporter plasmids together with one encoding TREp. Parallel cotransfections with expression plasmids for TRβ or RARα were performed in CV-1 cells along with the ΔSV-CAT reporter containing a single copy of the variant HRE. After addition of hormone (RA, 1 μM; T_3, 100 nM), the cell extracts were assayed for the CAT activity by […] the β-galactosidase activity produced by cotransfected pRAS-βGAL. In the figure, numbers in the columns indicate the level of induction of CAT activity by the hormone.

[3] = biological target: T5, Thyroid hormone receptor beta (TRβ), in …; experiment: cell_activity; T3 100 nM, CV-1; details: tags: pRShTRβ, 5'-agct overhangs
Description: as §3, with “1139–1146” for “1139-1146”, “(T_3,” for “(T3,”, “1,25-(OH)_2” for “1,25-(OH)2”, “D_3,” for “D3,”
as §4

| Molecule | function as RARE in F9 cells [1] | activity [2] [fold induction] | activity [3] [fold induction] | also measured |
| --- | --- | --- | --- | --- |
| 5′-AAGCTTAAG-GGTTCA-CCGAA-AGTTCA-CTCAGCTT-3′ (SEQ ID NO:7) (AAGCTTAAGGGTTCACCGAAAGTTCACTCAGCTT; listed as DNA, chemistry not given here) [βRE3, oligonucleotide including the β retinoic acid response element] | – | – | – | increase of induction by cotransfection of RAR-alpha expression vector (RAR): two-fold; RA-dependent induction in the absence of cotransfected RAR expression vector (endogenous RA receptor): robust RA-dependent induction |
| DR-5: perfect tandem repeat of AGGTCA hexamers separated by 5 nucleotides (SEQ ID NO:29) (AGCTTCAGGTCACCAGGAGGTCAGAGAGCT; DNA, backbone not given here; double-stranded DNA response element with agct overhangs, cloned into reporter) | functional RARE | – | – | RARα binding to labeled oligonucleotide probe (RARα; gel retardation, RARα COS cell extract): specific protein-DNA complex |
| MHC-R: MHC-T with half-site spacing increased by one nucleotide (SEQ ID NO:24) (AGCTGGAGGTGAACAGGAGGTCAGCAAGCT; DNA, backbone not given here; double-stranded response element with agct overhangs, cloned into reporter plasmid) | potent RAREs | – | – | competition for TRβ binding (mobility shift assay) (TRβ): poor competitors; competition for RARα binding to 32P-labeled βRARE (RARα): effective competitors |
| MHC-T: MHC-N with the AGGACA half-site corrected to AGGTCA (SEQ ID NO:23) (AGCTGGAGGTGACAGGAGGTCAGCAAGCT; DNA, backbone not given here; double-stranded response element with agct overhangs, cloned into reporter plasmid) | inert | – | – | competition for TRβ binding (mobility shift assay) (TRβ): efficient competition; competition for RARα binding to 32P-labeled βRARE (RARα): fails to compete efficiently |
| B1 | – | 2.6 | 15 | – |
| B2 | – | 9 | 14 | – |
| B3 | – | 4 | < 2 | – |
| B4 | – | 7.4 | – | – |
| B5 | – | – | – | activity ([3]; label: 32P): 10 fold induction |
